Measured values as given in PubChem BioAssay AID1259407 (Chemical Carcinogenesis Research Information System (CCRIS), 2018).
Calls of active or inactive are those of the source. No rule for the calls is given here.

Tested on: CCRIS mutagenicity, Ames/micronucleus/aberration tests
Test: CCRIS mutagenicity studies
[1] = Test System: AMES SALMONELLA TYPHIMURIUM, Strain/Indicator: TA97, Metabolic Activation: HAMSTER, LIVER, S-9, AROCLOR 1254 (10%), Method: PREINCUBATION
[2] = Test System: AMES SALMONELLA TYPHIMURIUM, Strain/Indicator: TA97, Metabolic Activation: HAMSTER, LIVER, S-9, AROCLOR 1254 (30%), Method: PREINCUBATION
[3] = Test System: AMES SALMONELLA TYPHIMURIUM, Strain/Indicator: TA97, Metabolic Activation: NONE, Method: PREINCUBATION
[4] = Test System: AMES SALMONELLA TYPHIMURIUM, Strain/Indicator: TA98, Metabolic Activation: NONE, Method: PREINCUBATION
[5] = Test System: AMES SALMONELLA TYPHIMURIUM, Strain/Indicator: TA100, Metabolic Activation: NONE, Method: PREINCUBATION
[6] = Test System: AMES SALMONELLA TYPHIMURIUM, Strain/Indicator: TA1535, Metabolic Activation: NONE, Method: PREINCUBATION
[7] = Test System: AMES SALMONELLA TYPHIMURIUM, Strain/Indicator: TA1535, Metabolic Activation: RAT, LIVER, S-9, AROCLOR 1254 (10%), Method: PREINCUBATION

In the case of Nc1cc([N+](=O)[O-])cc(S(=O)(=O)O)c1O, the mutagenic call [1] is reported as “inactive; negative”, the mutagenic call [2] is reported as “inactive; negative” and the mutagenic call [3] is reported as “inactive; negative”. For the same compound, the mutagenic call (Test System: AMES SALMONELLA TYPHIMURIUM, Strain/Indicator: TA97, Metabolic Activation: RAT, LIVER, S-9, AROCLOR 1254 (10 OR 30%), Method: PREINCUBATION) was “inactive; negative”, the mutagenic call (Test System: AMES SALMONELLA TYPHIMURIUM, Strain/Indicator: TA98, Metabolic Activation: HAMSTER, LIVER, S-9, AROCLOR 1254 (10 OR 30%), Method: PREINCUBATION) was “inactive; negative” and the mutagenic call [4] was “inactive; negative”. For the same compound, the mutagenic call (Test System: AMES SALMONELLA TYPHIMURIUM, Strain/Indicator: TA98, Metabolic Activation: RAT, LIVER, S-9, AROCLOR 1254 (10 OR 30%), Method: PREINCUBATION) was “inactive; negative”, the mutagenic call (Test System: AMES SALMONELLA TYPHIMURIUM, Strain/Indicator: TA100, Metabolic Activation: HAMSTER, LIVER, S-9, AROCLOR 1254 (10 OR 30%), Method: PREINCUBATION) was “inactive; negative” and the mutagenic call [5] was “inactive; negative”. The mutagenic call (Test System: AMES SALMONELLA TYPHIMURIUM, Strain/Indicator: TA100, Metabolic Activation: RAT, LIVER, S-9, AROCLOR 1254 (10 OR 30%), Method: PREINCUBATION) was “inactive; negative”, the mutagenic call (Test System: AMES SALMONELLA TYPHIMURIUM, Strain/Indicator: TA1535, Metabolic Activation: HAMSTER, LIVER, S-9, AROCLOR 1254 (10 OR 30%), Method: PREINCUBATION) was “inactive; negative” and the mutagenic call [6] was “inactive; negative”. The mutagenic call [7] was “inactive; negative”.

COc1cccc2c1[C@H](CO)N1[C@@H](C#N)[C@@H]3C[C@@H](C(=O)O)[C@H]([C@@H]1C2)N3C was tested, and the mutagenic call (Test System: Mouse lymphoma, Strain/Indicator: L5178Y (tk+/tk-), Metabolic Activation: None, Method: Suspension/plate) was “active; positive” and the mutagenic call (Test System: Mouse lymphoma, Strain/Indicator: L5178Y (tk+/tk-), Metabolic Activation: Rat, Liver, S-9, Aroclor 1254, Method: Suspension/plate) was “active; positive”.

For CC(=O)CC(=O)Nc1ccccc1, the mutagenic call (End Point: In vitro chromosomal aberrations, Test System: Chinese hamster lung (CHL/IU) cells, Metabolic Activation: Rat, Liver, S9, Phenobarbital and 5,6-benzoflavone) was “inactive; negative”, the mutagenic call [1] was “inactive; negative” and the mutagenic call [2] was “inactive; negative”. For the same compound, the mutagenic call [3] was “inactive; negative”, the mutagenic call (Test System: AMES SALMONELLA TYPHIMURIUM, Strain/Indicator: TA97, Metabolic Activation: RAT, LIVER, S-9, AROCLOR 1254 (10%), Method: PREINCUBATION) was “inactive; negative” and the mutagenic call (Test System: AMES SALMONELLA TYPHIMURIUM, Strain/Indicator: TA97, Metabolic Activation: RAT, LIVER, S-9, AROCLOR 1254 (30%), Method: PREINCUBATION) was “inactive; negative”. For the same compound, the mutagenic call (Test System: AMES SALMONELLA TYPHIMURIUM, Strain/Indicator: TA98, Metabolic Activation: HAMSTER, LIVER, S-9, AROCLOR 1254 (10%), Method: PREINCUBATION) was “inactive; negative”, the mutagenic call (Test System: AMES SALMONELLA TYPHIMURIUM, Strain/Indicator: TA98, Metabolic Activation: HAMSTER, LIVER, S-9, AROCLOR 1254 (30%), Method: PREINCUBATION) was “inactive; negative” and the mutagenic call [4] was “inactive; negative”. For the same compound, the mutagenic call (Test System: AMES SALMONELLA TYPHIMURIUM, Strain/Indicator: TA98, Metabolic Activation: RAT, LIVER, S-9, AROCLOR 1254 (10%), Method: PREINCUBATION) was “inactive; negative”, the mutagenic call (Test System: AMES SALMONELLA TYPHIMURIUM, Strain/Indicator: TA98, Metabolic Activation: RAT, LIVER, S-9, AROCLOR 1254 (30%), Method: PREINCUBATION) was “inactive; negative” and the mutagenic call (Test System: AMES SALMONELLA TYPHIMURIUM, Strain/Indicator: TA100, Metabolic Activation: HAMSTER, LIVER, S-9, AROCLOR 1254 (10%), Method: PREINCUBATION) was “inactive; negative”. The mutagenic call (Test System: AMES SALMONELLA TYPHIMURIUM, Strain/Indicator: TA100, Metabolic Activation: HAMSTER, LIVER, S-9, AROCLOR 1254 (30%), Method: PREINCUBATION) was “inactive; negative”, the mutagenic call [5] was “inactive; negative” and the mutagenic call (Test System: AMES SALMONELLA TYPHIMURIUM, Strain/Indicator: TA100, Metabolic Activation: RAT, LIVER, S-9, AROCLOR 1254 (10%), Method: PREINCUBATION) was “inactive; negative”. The mutagenic call (Test System: AMES SALMONELLA TYPHIMURIUM, Strain/Indicator: TA100, Metabolic Activation: RAT, LIVER, S-9, AROCLOR 1254 (30%), Method: PREINCUBATION) was “inactive; negative”, the mutagenic call (Test System: AMES SALMONELLA TYPHIMURIUM, Strain/Indicator: TA1535, Metabolic Activation: HAMSTER, LIVER, S-9, AROCLOR 1254 (10%), Method: PREINCUBATION) was “inactive; negative” and the mutagenic call (Test System: AMES SALMONELLA TYPHIMURIUM, Strain/Indicator: TA1535, Metabolic Activation: HAMSTER, LIVER, S-9, AROCLOR 1254 (30%), Method: PREINCUBATION) was “inactive; negative”. For the same compound, the mutagenic call [6] was “inactive; negative”, the mutagenic call [7] was “inactive; negative” and the mutagenic call (Test System: AMES SALMONELLA TYPHIMURIUM, Strain/Indicator: TA1535, Metabolic Activation: RAT, LIVER, S-9, AROCLOR 1254 (30%), Method: PREINCUBATION) was “inactive; negative”. The mutagenic call (Test System: Ames Salmonella typhimurium, Strain/Indicator: TA98, Metabolic Activation: None, Method: Preincubation) was “inactive; negative”, the mutagenic call (Test System: Ames Salmonella typhimurium, Strain/Indicator: TA98, Metabolic Activation: Rat, Liver, S9, Sodium phenobarbital and 5,6-benzoflavone (10%), Method: Preincubation) was “inactive; negative” and the mutagenic call (Test System: Ames Salmonella typhimurium, Strain/Indicator: TA100, Metabolic Activation: None, Method: Preincubation) was “inactive; negative”. For the same compound, the mutagenic call (Test System: Ames Salmonella typhimurium, Strain/Indicator: TA100, Metabolic Activation: Rat, Liver, S9, Sodium phenobarbital and 5,6-benzoflavone (10%), Method: Preincubation) was “inactive; negative”, the mutagenic call (Test System: Ames Salmonella typhimurium, Strain/Indicator: TA1535, Metabolic Activation: None, Method: Preincubation) was “inactive; negative” and the mutagenic call (Test System: Ames Salmonella typhimurium, Strain/Indicator: TA1535, Metabolic Activation: Rat, Liver, S9, Sodium phenobarbital and 5,6-benzoflavone (10%), Method: Preincubation) was “inactive; negative”. The mutagenic call (Test System: Ames Salmonella typhimurium, Strain/Indicator: TA1537, Metabolic Activation: None, Method: Preincubation) was “inactive; negative”, the mutagenic call (Test System: Ames Salmonella typhimurium, Strain/Indicator: TA1537, Metabolic Activation: Rat, Liver, S9, Sodium phenobarbital and 5,6-benzoflavone (10%), Method: Preincubation) was “inactive; negative” and the mutagenic call (Test System: E. coli, Strain/Indicator: WP2uvrA/pKM101, Metabolic Activation: None, Method: Preincubation) was “active; positive”. For the same compound, the mutagenic call (Test System: E. coli, Strain/Indicator: WP2uvrA/pKM101, Metabolic Activation: Rat, Liver, S9, Sodium phenobarbital and 5,6-benzoflavone (10%), Method: Preincubation) was “active; positive”.

With COc1cc(O)c2c(=O)c(-c3ccc(O)cc3)coc2c1 the mutagenic call (Test System: SYRIAN HAMSTER EMBRYO CELLS, Strain/Indicator: HPRT/6-THIOGUANINE, Metabolic Activation: NONE, Method: PLATE) was “inactive; negative”.

For O=C(O)[C@H](O)[C@@H](O)[C@H](O)[C@H](O)CO, the mutagenic call [3] was “inactive; negative”, the mutagenic call (Test System: AMES SALMONELLA TYPHIMURIUM, Strain/Indicator: TA97, Metabolic Activation: RAT, LIVER, S-9, AROCLOR 1254, Method: PREINCUBATION) was “inactive; negative” and the mutagenic call (Test System: AMES SALMONELLA TYPHIMURIUM, Strain/Indicator: TA102, Metabolic Activation: NONE, Method: PREINCUBATION) was “inactive; negative”. The mutagenic call (Test System: AMES SALMONELLA TYPHIMURIUM, Strain/Indicator: TA102, Metabolic Activation: RAT, LIVER, S-9, AROCLOR 1254, Method: PREINCUBATION) was “inactive; negative”.

With CC(O)CN(CC(O)CO)N=O (centres undefined) the mutagenic call (Test System: AMES SALMONELLA TYPHIMURIUM, Strain/Indicator: TA100, Metabolic Activation: HAMSTER, LIVER, S-9, 3-METHYLCHOLANTHRENE, Method: PREINCUBATION) was “inactive; negative”, the mutagenic call (Test System: AMES SALMONELLA TYPHIMURIUM, Strain/Indicator: TA100, Metabolic Activation: HAMSTER, LIVER, S-9, PHENOBARBITAL, Method: PREINCUBATION) was “active; positive” and the mutagenic call (Test System: AMES SALMONELLA TYPHIMURIUM, Strain/Indicator: TA100, Metabolic Activation: HAMSTER, LIVER, S-9, Method: PREINCUBATION) was “inactive; negative”. For the same compound, the mutagenic call (Test System: AMES SALMONELLA TYPHIMURIUM, Strain/Indicator: TA100, Metabolic Activation: MOUSE, LIVER, S-9, 3-METHYLCHOLANTHRENE, Method: PREINCUBATION) was “inactive; negative”, the mutagenic call (Test System: AMES SALMONELLA TYPHIMURIUM, Strain/Indicator: TA100, Metabolic Activation: MOUSE, LIVER, S-9, PHENOBARBITAL, Method: PREINCUBATION) was “active; positive” and the mutagenic call (Test System: AMES SALMONELLA TYPHIMURIUM, Strain/Indicator: TA100, Metabolic Activation: MOUSE, LIVER, S-9, Method: PREINCUBATION) was “inactive; negative”. For the same compound, the mutagenic call [5] was “inactive; negative” and the mutagenic call (Test System: AMES SALMONELLA TYPHIMURIUM, Strain/Indicator: TA100, Method: PREINCUBATION) was “active; positive”.
